Test results as given in patent US11286268B1, “EIF4E-inhibiting compounds and methods” (EFFECTOR THERAPEUTICS, INC., priority 2019, dated 2022).

Target: recombinant eIF4E (Homo sapiens (Human), UniProt P06730)
Experiment: Fluorescence polarization competition assay for eIF4E binding potency
Settings: inhibition of eIF4E/EDA-m7GDP-ATTO-550 binding; calculated IC50 values, Table 4B; read-out: IC50
Method in brief: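 IC50 values reflect 50% displacement of 20 nM EDA-m7GDP-ATTO-550 from 75 nM eIF4E, measured by fluorescence polarization after 30 min at room temperature. Buffer: 20 mM Tris pH 7.5, 100 mM NaCl, 1 mM DTT, 0.02% Tween-20; 1% DMSO.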

recombinant eIF4E, sequence (P06730 whole entry): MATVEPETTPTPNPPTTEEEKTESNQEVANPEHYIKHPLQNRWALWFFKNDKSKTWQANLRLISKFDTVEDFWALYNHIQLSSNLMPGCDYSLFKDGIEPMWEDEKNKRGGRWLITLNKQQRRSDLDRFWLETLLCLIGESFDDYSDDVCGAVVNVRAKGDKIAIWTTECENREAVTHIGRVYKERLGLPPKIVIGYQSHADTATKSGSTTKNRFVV

| Compound | IC50 |
| --- | --- |
| Cc1nc2cc3c(c(C#N)c2c(=O)n1CCOc1ccc(Cl)cc1-c1ccnc2c(C(=O)O)csc12)S(=O)(=O)N(C)C3 [compound 1953] | 89.3 nM |
| Cc1nc2cnc(N(C)C3CCN(CC(C)(F)F)CC3)c(C(N)=O)c2c(=O)n1CC#Cc1ccc(Cl)cc1-c1ccnc2c(C(=O)OC(C)(C)C)csc12 [compound 1960] | 43200 nM |
| Cc1nc2cnc(N(C)C3CCN(CC(C)(F)F)CC3)c(C(N)=O)c2c(=O)n1CC#Cc1ccc(Cl)cc1-c1ccnc2c(C(=O)O)csc12 [compound 1961] | 211 nM |
| Cc1cc(-c2cc(Cl)ccc2OCCn2c(C)nc3c(C4CC4)ncc(Cl)c3c2=O)c2scc(C(=O)O)c2n1 [compound 1963] | 241 nM |
| Cc1cc(-c2cc(Cl)ccc2OCCn2c(C)nc3c(C#N)nc(C4CC4)c(C)c3c2=O)c2scc(C(=O)O)c2n1 [compound 1964] | 49.8 nM |
| Cc1c(CC2CCOCC2)nc(C#N)c2nc(C)n(CC#Cc3ccc(Cl)cc3-c3ccnc4c(C(=O)O)csc34)c(=O)c12 [compound 1965] | 86.4 nM |
| N#Cc1cc(C(F)(F)F)cc2c(Cl)c(Cl)n(CCOc3ccc(Cl)cc3-c3ccnc4c(C(=O)O)csc34)c(=O)c12 [compound 1970] | 67.2 nM |
| Cc1cc(-c2cc(Cl)ccc2OCCn2c(C)nc3cc(C(F)(F)F)c(C4CCN(C)CC4)cc3c2=O)c2sc(C)c(C(=O)O)c2n1 [compound 1971] | 51.9 nM |
| N#Cc1cccc2nc(C(F)F)n(CCOc3ccc(Cl)cc3-c3cccc(C(=O)O)c3)c(=O)c12 [compound 1973] | 14.3 nM |
| Cc1cc(-c2cc(Cl)ccc2OCCn2c(C)nc3cc(C(F)(F)F)c4c(c3c2=O)C(=O)CC4)c2scc(C(=O)O)c2n1 [compound 1974] | 51.3 nM |
| Cc1cc(-c2cc(Cl)ccc2OCCn2c(=O)c3c(C#N)cc(C(F)(F)F)cc3n(C)c2=O)c2scc(C(=O)O)c2n1 [compound 1975] | 109 nM |
| Cc1cc2cc(C(F)(F)F)cc(C#N)c2c(O)c1CCOc1ccc(Cl)cc1-c1ccnc2c(C(=O)O)csc12 [compound 1976] | 1850 nM |
| COc1c(CCOc2ccc(Cl)cc2-c2ccnc3c(C(=O)O)csc23)c(C)cc2cc(C(F)(F)F)cc(C#N)c12 [compound 1977] | > 1000 nM |
| N#Cc1cncc2nc(C(F)F)n(CCOc3ccc(Cl)cc3-c3cccc(C(=O)O)c3)c(=O)c12 [compound 1983] | 82.6 nM |
| N#Cc1cccc2nc(C(F)F)n(CCOc3ccc(Cl)cc3-c3cccc(C(=O)O)c3)c(=O)c12 [compound 1986] | 78.5 nM |
| CCC#Cc1c(C(=O)O)cccc1-c1cc(Cl)ccc1OCCn1c(C(F)F)nc2cccc(C#N)c2c1=O [compound 1987] | 1290 nM |

Other lines, results leading:

| IC50 | Compound |
| --- | --- |
| 21.6 nM | Cc1nc2cc(Cl)c(C#N)c(C#N)c2c(=O)n1CCOc1ccc(Cl)cc1-c1ccnc2c(C(=O)O)csc12 [compound 1949] |
| 41.7 nM | Cc1cc(-c2cc(Cl)ccc2OCCn2c(C)nc3cc(Cl)c(N4CC5(CCC5)C4)c(C#N)c3c2=O)c2scc(C(=O)O)c2n1 [compound 1950] |
| 19.9 nM | Cc1nc2cc(Cl)c(C(F)F)c(C#N)c2c(=O)n1CCOc1ccc(Cl)cc1-c1ccnc2c(C(=O)O)csc12 [compound 1951] |
| 17 nM | Cc1nc2cc3c(c(C#N)c2c(=O)n1CCOc1ccc(Cl)cc1-c1ccnc2c(C(=O)O)csc12)S(=O)(=O)N(C)CC3 [compound 1954] |
| 46.3 nM | Cc1cc(-c2cc(Cl)ccc2OCCn2c(C)nc3c(C)nc(CN(C)C)cc3c2=O)c2scc(C(=O)O)c2n1 [compound 1959] |
| 18 nM | Cc1nc2cc(C(F)(F)F)c3c(c2c(=O)n1CCOc1ccc(Cl)cc1-c1ccnc2c(C(=O)O)csc12)C(=O)OC3 [compound 1972] |
| 25.3 nM | Cc1cc(-c2cc(Cl)ccc2OCCn2c(C)nc3cc(C(F)(F)F)c(Cl)nc3c2=O)c2scc(C(=O)O)c2n1 [compound 1978] |
| 23.8 nM | Cc1nc2c(C(F)(F)F)cc(N3CCN(C)CC3)nc2c(=O)n1CC#Cc1ccc(Cl)cc1-c1ccnc2c(C(=O)O)csc12 [compound 1981] |
| 36.4 nM | Cc1nc2cncc(C#N)c2c(=O)n1CCOc1ccc(Cl)cc1-c1cccc(C(=O)O)c1 [compound 1982] |
